Values joined by “and” are separate entries in the source; they are usually repeats but may differ in a detail not shown here. Equal entries are not always repeated. Active and inactive are the calls of the source.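 Rule for the calls: active = fitted curve reaching 40% activation at or below the sample's highest valid tested dose; inconclusive = flat fit between 30% and 70%, or poor fit; inactive = the rest, including opposite-direction activity.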

In the first test the target is Kelch-like ECH-associated protein 1 (Homo sapiens) + Nuclear factor erythroid 2-related factor 2 (Homo sapiens) (UniProt Q14145+Q16236). As to the kind of experiment: cellular Nrf2 nuclear translocation induction – PathHunter, U2OS cells, dry powder, orthogonal assay for Keap1-Nrf2 interaction inhibitor project, dose response (AID 651833). As to conditions: beta-gal luminescence, 3 h.
Sequence of Kelch-like ECH-associated protein 1 (Homo sapiens) + Nuclear factor erythroid 2-related factor 2 (Homo sapiens) (Q14145 whole entry, looked up): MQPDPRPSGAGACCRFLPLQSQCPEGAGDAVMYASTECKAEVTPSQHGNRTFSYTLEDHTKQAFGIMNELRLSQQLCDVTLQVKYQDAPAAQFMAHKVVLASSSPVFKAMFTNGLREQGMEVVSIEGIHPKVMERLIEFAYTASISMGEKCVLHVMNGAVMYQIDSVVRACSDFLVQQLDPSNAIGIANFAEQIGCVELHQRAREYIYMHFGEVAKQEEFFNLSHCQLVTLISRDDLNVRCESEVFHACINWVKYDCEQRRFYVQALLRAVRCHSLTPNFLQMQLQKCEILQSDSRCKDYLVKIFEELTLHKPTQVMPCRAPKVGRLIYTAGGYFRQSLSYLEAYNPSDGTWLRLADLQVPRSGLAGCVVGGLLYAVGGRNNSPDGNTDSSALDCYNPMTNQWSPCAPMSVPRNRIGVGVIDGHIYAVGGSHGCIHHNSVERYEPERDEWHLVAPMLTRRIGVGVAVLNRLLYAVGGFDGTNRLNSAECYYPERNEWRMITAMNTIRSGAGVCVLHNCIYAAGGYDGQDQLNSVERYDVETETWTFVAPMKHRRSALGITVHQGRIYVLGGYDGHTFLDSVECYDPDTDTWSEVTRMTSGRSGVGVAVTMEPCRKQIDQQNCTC
Sequence of Kelch-like ECH-associated protein 1 (Homo sapiens) + Nuclear factor erythroid 2-related factor 2 (Homo sapiens) (Q16236 whole entry, looked up): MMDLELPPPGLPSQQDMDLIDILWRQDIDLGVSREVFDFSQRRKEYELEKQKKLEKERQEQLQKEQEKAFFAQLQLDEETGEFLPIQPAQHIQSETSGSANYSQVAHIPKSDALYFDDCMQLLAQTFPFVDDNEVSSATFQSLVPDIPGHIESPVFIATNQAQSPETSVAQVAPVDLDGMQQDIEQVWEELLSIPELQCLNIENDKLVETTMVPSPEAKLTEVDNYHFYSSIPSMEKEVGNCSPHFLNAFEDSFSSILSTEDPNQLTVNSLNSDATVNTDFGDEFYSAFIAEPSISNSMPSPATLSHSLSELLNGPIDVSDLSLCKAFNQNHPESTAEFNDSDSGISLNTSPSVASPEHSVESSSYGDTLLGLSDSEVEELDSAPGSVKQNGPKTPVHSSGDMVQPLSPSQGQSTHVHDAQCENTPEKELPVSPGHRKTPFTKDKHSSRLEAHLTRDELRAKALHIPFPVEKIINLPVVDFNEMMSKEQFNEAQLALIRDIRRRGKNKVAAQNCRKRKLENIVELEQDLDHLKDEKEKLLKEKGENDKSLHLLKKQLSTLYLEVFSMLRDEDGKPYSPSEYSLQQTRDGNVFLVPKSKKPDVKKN
As for `Cc1cc(C)c(S(=O)(=O)Nc2nc(C(C(=O)OC(C)C)C(=O)C(F)(F)F)nc3ccccc23)c(C)c1` (configuration not stated), the AC40 was > 38 µM (inactive).

For `COC(=O)C(C(=O)OC)c1cc(NS(=O)(=O)c2c(C)cc(C)cc2C)c2ccccc2c1O`, the AC40 was 4.21 µM.

Regarding `O=C(O)C1CCCCC1C(=O)N1CCc2ccccc2C1CN1Cc2ccccc2C1=O` (configuration not stated), the AC40 was > 38 µM (inactive).

Turning to `Cc1ccccc1S(=O)(=O)Nc1cc(C(C(=O)OC(C)C)C(=O)C(F)(F)F)c(O)c2ccccc12` (configuration not stated), the AC40 is 6.97 µM.

With `Cc1ccc(S(=O)(=O)Nc2cc(C(C(=O)OC(C)C)C(=O)C(F)(F)F)c(O)c3ccccc23)cc1` (configuration not stated), the AC40 is 12.1 µM.

For the molecule `Cc1ccc(S(=O)(=O)NNc2nc(N3CC(O)CC3C(=O)O)nc3ccccc23)cc1` (configuration not stated), the AC40 is > 38 µM (inactive).

As to `Cc1ccc(S(=O)(=O)NC2=CC(=N[C@@H](C)C(=O)OC(C)(C)C)C(=O)c3ccccc32)c(C)c1`, the AC40 was > 38 µM (inactive).

With `Cc1cc(C)c(S(=O)(=O)Nc2cc(C(C(=O)OC(C)C)C(=O)C(F)(F)F)c(O)c3ccccc23)c(C)c1` (configuration not stated), the AC40 was 1.1 µM.

Turning to `O=C(NC[C@@H]1c2ccccc2CCN1C(=O)[C@@H]1CCCC[C@@H]1C(=O)O)OCC1c2ccccc2-c2ccccc21`, the AC40 was > 38 µM (inactive).

As to `O=C(NC[C@@H]1c2ccccc2CCN1C(=O)[C@@H]1CCCC[C@@H]1C(=O)O)c1ccccc1`, the AC40 was > 38 µM (inactive).

`CC(C)OC(=O)C(C(=O)C(F)(F)F)c1cc(NS(=O)(=O)c2ccccc2)c2ccccc2c1O` (configuration not stated): the AC40 was 20 µM.

As for `Cc1ccc(S(=O)(=O)NNc2nc(C(C(=O)OC(C)C)C(=O)C(F)(F)F)nc3ccccc23)cc1` (configuration not stated), the AC40 is 18.5 µM.

In the case of `O=C(NC[C@@H]1c2ccccc2CCN1C(=O)[C@@H]1CCCC[C@@H]1C(=O)O)c1ccc(CCl)cc1`, the AC40 was > 38 µM (inactive).

`Cc1ccc(S(=O)(=O)Nc2cc(C(C(=O)OC(C)C)C(=O)C(F)(F)F)c(O)c3ccccc23)c(C)c1` (configuration not stated): the AC40 is 5.12 µM.

On to `CC(=O)Nc1cc(NS(=O)(=O)c2c(C)cc(C)cc2C)c2ccccc2c1O`, for which the AC40 was 27.2 µM.

Take `O=C(Oc1cc(CN2C(=O)c3ccccc3C2=O)c2ccccc2[n+]1[O-])c1cccc(Cl)c1`: the AC40 is 30 µM.

For `O=C(O)Cc1ccccc1C(=O)N1CCc2ccccc2[C@H]1CN1C(=O)c2ccccc2C1=O`, the AC40 is > 38 µM (inactive).

As to `O=C(O)[C@H]1C2C=CC(C2)[C@H]1C(=O)N1CCc2ccccc2C1CN1C(=O)c2ccccc2C1=O` (some centres not stated), the AC40 was > 38 µM (inactive).

The same test, now with this note: beta-gal luminescence, 3 h, at 10 µM (top of the series).
Consider `O=C1c2ccccc2C(=O)N1CC1c2ccccc2CCN1C(=O)Cc1ccccc1` (configuration not stated), for which the activation is -2.75% (inactive).

Still in this test, the particulars now being: beta-gal luminescence, 3 h, at 38 µM (top of the series).
As for `O=C(Cc1ccccc1)NC[C@@H]1c2ccccc2CCN1C(=O)[C@@H]1CCCC[C@@H]1C(=O)O`, the activation was 6.26% (inactive).

For the molecule `O=C(O)[C@H]1CCCC[C@H]1C(=O)N1CCc2ccccc2[C@H]1CNS(=O)(=O)c1ccc([N+](=O)[O-])cc1`, the activation is 6.37% (inactive).

Take `O=C(NCCCN1CCOCC1)c1ccccc1C(=O)NC[C@@H]1c2ccccc2CCN1C(=O)C1CCCCC1C(=O)O` (some centres not stated): the activation is 4.62% (inactive).

`O=S(=O)(Nc1nc(NCC2CCCCC2)nc2ccccc12)c1ccccc1`: the activation was 3.97% (inactive).

With `O=C(O)C1CCCCC1C(=O)N1CCc2ccccc2[C@H]1C(=O)NCCc1ccccc1` (some centres not stated), the activation was 0.849% (inactive).

Take `O=C(NC[C@@H]1c2ccccc2CCN1C(=O)[C@@H]1CCCC[C@@H]1C(=O)O)c1ccccc1CO`: the activation is 2.2% (inactive).

Regarding `O=C(O)[C@H]1CCCC[C@H]1C(=O)NC(CN1C(=O)c2ccccc2C1=O)c1ccccc1` (some centres not stated), the activation is -1.98% (inactive).

With `O=C(O)C1CCCCC1C(=O)N1CCc2ccccc2[C@H]1C(=O)NC12CC3CC(CC(C3)C1)C2` (some centres not stated), the activation is -2.47% (inactive).

Consider `O=C(O)[C@H]1CCCC[C@H]1C(=O)N1CCc2ccccc2[C@H]1CNc1nc(Cl)nc2ccccc12`, for which the activation was 5.4% (inactive).

In the case of `O=C(O)[C@H]1CCCC[C@H]1C(=O)N1CCc2ccccc2C1CCN1C(=O)c2ccccc2C1=O` (some centres not stated), the activation was 0.812% (inactive) and -0.193% (inactive).

For the molecule `COC(=O)C1CCCCC1C(=O)N1CCc2ccccc2C1CN1C(=O)c2ccccc2C1=O` (configuration not stated), the activation was 1.27% (inactive).

With `CCOC(=O)Cc1nc(NS(=O)(=O)c2c(C)cc(C)cc2C)c2ccccc2n1`, the activation was 8.62% (inactive).

Regarding `Cc1cc(C)c(S(=O)(=O)Nc2nc(N(C)C)nc3ccccc23)c(C)c1`, the activation is 2.02% (inactive).

Regarding `O=C(NCCc1ccccc1)c1ccccc1C(=O)NC[C@@H]1c2ccccc2CCN1C(=O)C1CCCCC1C(=O)O` (some centres not stated), the activation was 5.09% (inactive).

On to `COC(=O)CNc1nc(NS(=O)(=O)c2c(C)cc(C)cc2C)c2ccccc2n1`, for which the activation is 3.66% (inactive).

As for `Cc1cc(C)c(S(=O)(=O)Nc2cc(C(C(=O)OCc3ccccc3)C(=O)OCc3ccccc3)c(O)c3ccccc23)c(C)c1`, the activation is 5.34% (inactive).

`CCOC(=O)C(C(=O)OCC)c1nc(NS(=O)(=O)c2c(C)cc(C)cc2C)c2ccccc2n1`: the activation is 1.28% (inactive).

On to `O=C(NCCO)c1ccccc1C(=O)NC[C@@H]1c2ccccc2CCN1C(=O)C1CCCCC1C(=O)O` (some centres not stated), for which the activation is 4.09% (inactive).

In the case of `O=C(O)CCC(=O)N1CCc2ccccc2C1CN1C(=O)c2ccccc2C1=O` (configuration not stated), the activation is 1.36% (inactive).

Consider `O=C1c2ccccc2C(=O)N1C[C@@H]1c2ccccc2CCN1C(=O)C1CCCCC1`, for which the activation is 0.733% (inactive).

Consider `CCOC(=O)C(C(=O)OCC)c1cc(CNS(=O)(=O)c2ccc(C)cc2C)c2ccccc2n1`, for which the activation was 1.4% (inactive).

Take `CC(C)CNc1nc(NS(=O)(=O)c2ccccc2)c2ccccc2n1`: the activation is 7.06% (inactive).

With `COC(=O)[C@@H]1CCCC[C@@H]1C(=O)N1CCc2ccccc2[C@H]1CN1C(=O)c2ccccc2C1=O`, the activation is -2.72% (inactive).

Consider `COC(=O)[C@@H]1CCCC[C@@H]1C(=O)N1CCc2ccccc2[C@@H]1CN1C(=O)c2ccccc2C1=O`, for which the activation was -2.15% (inactive).

Turning to `C=CC(=O)NC[C@@H]1c2ccccc2CCN1C(=O)[C@@H]1CCCC[C@@H]1C(=O)O`, the activation is 6.96% (inactive).

For the molecule `O=C1c2ccccc2C(=O)N1C[C@H]1NCCc2ccccc21`, the activation was -2.67% (inactive).

As to `Cc1cc(C)c(S(=O)(=O)Nc2nc(NCCO)nc3ccccc23)c(C)c1`, the activation was 3.36% (inactive).

On to `Cc1ccc(S(=O)(=O)NC[C@@H]2c3ccccc3CCN2C(=O)[C@@H]2CCCC[C@@H]2C(=O)O)c(C)c1`, for which the activation was 4.66% (inactive).

For `O=C(O)C1CCCCC1C(=O)N1CCc2ccccc2C1CN1C(=O)[C@H]2CCCC[C@H]2C1=O` (some centres not stated), the activation is 4.38% (inactive).

Consider `Cc1ccc(S(=O)(=O)NNc2nc(NCC(N)=O)nc3ccccc23)cc1`, for which the activation is 3% (inactive).

With `O=C(O)C1CCCCC1C(=O)N1CCc2ccccc2C1c1ccccc1` (configuration not stated), the activation was -2.53% (inactive).

As to `O=C(O)c1ccccc1C(=O)N1CCc2ccccc2C1CN1C(=O)c2ccccc2C1=O` (configuration not stated), the activation was 4.54% (inactive).

Take `COC(=O)[C@H]1CCCC[C@H]1C(=O)N1CCc2ccccc2[C@H]1CN1C(=O)c2ccccc2C1=O`: the activation was -2.1% (inactive).

Consider `C[C@@H](NC(=O)C1CCCC[C@H]1C(=O)O)c1ccccc1` (mixture of isomers), for which the activation was -1.8% (inactive).

As for `O=C1c2ccccc2C(=O)N1C[C@@H]1c2ccccc2CCN1C(=O)OCc1ccccc1`, the activation was 1.45% (inactive).

For the molecule `O=C(O)[C@H]1CCCC[C@H]1C(=O)N1CCC2=C(CCCC2)C1CN1C(=O)c2ccccc2C1=O` (some centres not stated), the activation is 11% (inactive) and -0.217% (inactive).

As for `O=C1c2ccccc2C(=O)N1CC1=NCCc2ccccc21`, the activation is -0.067% (inactive).

As to `Cc1cc(C)c(S(=O)(=O)Nc2ncnc3ccccc23)c(C)c1`, the activation was 2.9% (inactive).

On to `O=C(O)C1CCCCC1C(=O)N1CCCCC1CN1C(=O)c2ccccc2C1=O` (configuration not stated), for which the activation is -1.78% (inactive).

On to `O=C(O)C1CCCCC1C(=O)N1CCc2ccccc2C1CN1C(=O)c2ccccc2S1(=O)=O` (configuration not stated), for which the activation was 13.7% (inactive).

`O=C(O)c1ccccc1C(=O)NC[C@@H]1c2ccccc2CCN1C(=O)[C@@H]1CCCC[C@@H]1C(=O)O`: the activation is 0.179% (inactive).

Turning to `NC(=O)[C@H]1CCCC[C@H]1C(=O)N1CCc2ccccc2[C@H]1CN1C(=O)c2ccccc2C1=O`, the activation is 4.54% (inactive).

As for `O=C(O)/C=C\C(=O)N1CCc2ccccc2C1CN1C(=O)c2ccccc2C1=O` (configuration not stated), the activation was 13% (inactive).

Turning to `COc1ccccc1CCNC(=O)[C@@H]1c2ccccc2CCN1C(=O)C1CCCCC1C(=O)O` (some centres not stated), the activation was -2.36% (inactive) and -1.69% (inactive).

Consider `COc1ccc(CCN=C2C=C(NS(=O)(=O)c3c(C)cc(C)cc3C)c3ccccc3C2=O)cc1`, for which the activation was 5.19% (inactive).

Take `O=C(O)C1CCCCC1C(=O)NCC1c2ccccc2CCN1C(=O)Cc1ccccc1` (configuration not stated): the activation is 0.036% (inactive).

`O=C(O)CC(=O)N1CCc2ccccc2C1CN1C(=O)c2ccccc2C1=O` (configuration not stated): the activation is 2.73% (inactive).

`Cc1ccc(S(=O)(=O)NC(=O)[C@@H]2c3ccccc3CCN2C(=O)[C@@H]2CCCC[C@@H]2C(=O)O)cc1`: the activation was 6.05% (inactive) and 8.58% (inactive).

`O=C(O)[C@H]1CCCC[C@H]1C(=O)N1CCc2ccccc2C1` (racemic): the activation was -0.662% (inactive).

On to `O=C(O)C1CCCCC1C(=O)Nc1ccccc1CN1C(=O)c2ccccc2C1=O` (configuration not stated), for which the activation is -2.72% (inactive).

For `C[C@H](NC(=O)C1CCCC[C@H]1C(=O)O)c1ccccc1` (mixture of isomers), the activation is -4.29% (inactive).

Consider `O=C(O)C1CCCCC1C(=O)N1CCc2ccccc2C1CN1C(=O)Cc2ccccc2C1=O` (configuration not stated), for which the activation is 8.47% (inactive).

For the molecule `O=C(O)[C@@H]1CCCN1C(=O)N1CCc2ccccc2[C@H]1CN1C(=O)c2ccccc2C1=O`, the activation is 5.41% (inactive).

For the origin of these results see PubChem BioAssay AID651833 (Broad Institute, 2012).
